In paper PMC10135567, “New Indole-3-Propionic Acid and 5-Methoxy-Indole Carboxylic Acid Derived Hydrazone Hybrids as Multifunctional Neuroprotectors” (Antioxidants, 2023):

Tests used:
[1] = MTT cell viability assay (cytotoxicity), SH-SY5Y; conditions: human, SH-SY5Y neuroblastoma cells
Procedure: Neuroblastoma cell line SH-SY5Y (94030304) was acquired from the European Collection of Cell Cultures (ECACC, Salisbury, UK). Cells were cultured in a medium prepared with RPMI basic media supplemented with 10% heat-inactivated FBS (fetal bovine serum), 2 mM L-glutamine, 1% antibiotics (penicillin/streptomycin), and incubated at 37 °C in a humidified atmosphere containing 5% of CO2. The culture’s medium was replaced at a time interval of 2–3 days.
(§1) Cell viability was assessed via the mitochondrial reductase-dependent reaction of (3-(4,5-dimethylthiazol-2-yl)- 2,5-diphenyl tetrazolium bromide (MTT, cat. no. 475989, Calbiochem, Merck KGaA, Darmstadt, Germany). The SH-SY5Y and bEnd3 cell lines were seeded in 96-well plates at a density of 0.7 × 10^4 (bEnd3) or 2 × 10^4 (SH-SY5Y) cells/well and allowed to adhere for 24 h at 37 °C, 5% CO2. Then, the cells were incubated with the compounds (1–500 μM) for a preset time (24 h). For the solvent, the control cells were treated with DMSO corresponding to the highest concentration of DMSO in the samples (0.5% DMSO) in order to exclude its cytotoxic effect on the cells. For each concentration, a set of at least 6 wells were used. After incubation, the solution from each well was exchanged with fresh culture medium (100 µL/well), containing the MTT reagent (0.5 mg/mL) and incubated for 3 h at 37 °C in a humidified atmosphere and 5% CO2. The obtained formazan crystals were dissolved in 100 µL/well of 5% formic acid in propan-2-ol solution (or DMSO). The absorbance was measured at 570 nm via multiplate reader Tecan Infinite F200 PRO (Tecan Trading AG., Männedorf, Switzerland) or Synergy 2 (BioTek Instruments, Inc., Highland Park, Winooski, VT, USA).
(§2) Both the SH-SY5Y and bEnd3 cells were treated with the test compounds in a concentration range from 1 to 500 µM for 24 h.

[2] = MTT cell viability assay (cytotoxicity), bEnd3; format: cell-based, mouse; conditions: mouse, bEnd3 brain endothelial cells, 1–500 µM
Procedure: Mouse-brain endothelial cell line bEnd3 [36] (CRL-2299) was purchased from the American Type Culture Collection (ATCC, Manassas, VA, USA). The cells were cultured in DMEM (Dulbeco’s modified essential medium) (cat. no. 30-2002, ATCC, Manassas, VA, USA), supplemented with 10% heat-inactivated FBS (cat. no. F7524, Sigma-Aldrich Co. LLC, St. Louis, MO, USA), 1 mM L-glutamine (cat. no. G7513, Sigma-Aldrich Co. LLC, St. Louis, MO, USA) and 1× Antibiotic-Antimycotic solution (penicillin: streptomycin: amphotericin B (100 U/mL: 0.10 mg/mL: 0.25 µg/mL) (cat. no. A5955, Sigma-Aldrich Co. LLC, St. Louis, MO, USA) at 37 °C in a humidified atmosphere containing 5% CO2. The cells were passaged in 75 cm^2 flasks every 3–5 days via trypsinization (StableCell Trypsin solution, cat. no. T2610, Sigma-Aldrich Co. LLC, St. Louis, MO, USA).
as §1, §2

[3] = test system: isolated rat-brain synaptosomes; experiment: 6-OHDA-induced neurotoxicity in isolated rat synaptosomes, synaptosomal viability; format: cell-based; conditions: Rattus norvegicus; 10 µM pre-incubation 30 min, then 150 µM 6-OHDA 1 h; read-out: synaptosomal viability (SV) preserved, as compared to 6-OHDA
Procedure: (§3) This neurotoxicity model was based on the metabolism and auto-oxidation of 6-hydroxy dopamine responsible for the reactive oxygen species and quinones generation, ultimately leading to neurotoxicity and neurodegeneration. The experiment was performed by pre-incubation of the synaptosomes with 10 µM of the compounds for 30 min, followed by the addition of 150 µM 6-hydroxy dopamine for induction of neurotoxicity. After 1 h, they were centrifuged twice for 1 min at 15,000 × g. After the second wash, the precipitates were resolved with buffer B and glucose.

[4] = Fe(II)-induced lipid peroxidation assay (LP assay, TBARS); format: biochemical; conditions: 90 µM, lecithin 1 mg/mL, 0.1 mM FeCl2; lower = stronger antioxidant
Procedure: (§4) The lipid peroxidation assay and a modification of the deoxyribose-degradation assay were used. Two types of measurement compositions in phosphate buffer (PB–K2HPO4/KH2PO4, pH 7.4) were prepared for both tests: (i) samples, containing the biologically relevant molecules (lecithin emulsion or deoxyribose), iron, and the tested hydrazones at the concentrations indicated below the figures; and (ii) controls, in which the tested hydrazones were omitted. The data for the sample activity were presented as a percentage of the control measurement.
The thiobarbituric-acid reactive-substance colorimetric test was performed in a model system of Fe(II)-induced lipid peroxidation as an emulsion prepared from egg yolk phospholipids. Each sample contained 1 mg/mL of lecithin. LP was initiated using 0.1 mM FeCl2. After 30 min incubation at 37 °C, 0.5 mL of 2.8% trichloroacetic acid solution and 0.5 mL of 0.5% thiobarbituric acid solution were added, following a second incubation at 100 °C for 20 min. Centrifugation at 3000 rpm for 20 min at 4 °C was performed, and we determined the absorbance value of the supernatant at 532 nm via Shimadzu UV-1601 UV-VIS spectrophotometer.

[5] = Fe(II)-induced deoxyribose degradation assay; format: biochemical; conditions: 80 µM, 2-deoxyribose 0.5 mM, 0.1 mM FeCl2; lower = stronger antioxidant
Procedure: as §4
The deoxyribose (0.5 mM) damage was induced by adding FeCl2 (0.1 mM). The measurement compositions were incubated at 37 °C for 30 min. The next step comprised adding 0.5 mL of 2.8% trichloroacetic acid and 0.5 mL of thiobarbituric acid. Then, the samples were heated in boiling water for 20 min, and their absorbance was estimated at 532 nm (characteristic band for the generated chromophore) via Shimadzu UV-1601 UV-vis spectrophotometer.

[6] = O-phenanthroline Fe(II) chelation test; format: physicochemical; conditions: 200 µM compound, FeCl2
Procedure: The Fe (II)-chelating activity of the tested hydrazones was determined by the O-phenanthroline method. A total of 1 mL sample solutions of 50 mM PB pH 7 contained 0.2 mM O-phenanthroline and 0.05 mM FeCl2 and 0.2 mM hydrazone. In the controls, the tested compounds were omitted. Absorbance was measured at 515 nm via GENESYS 50 UV-VIS spectrophotometer after incubation for 5 min at 37 °C. The data for the sample activity were presented as a percentage of the control measurement. Absorbance spectra of all the samples, the control, and the measurement compositions containing the tested hydrazones and Fe(II) at the concentrations used in the samples were measured.
To explain the results of both systems of Fe(II)-induced oxidative damage, we studied the potency of the tested compounds to chelate-iron (Fe(II)). This was studied by spectrophotometric determination of free iron (Fe(II)) using the ortho-phenanthroline test, as 1,10-phenantroline reacts rapidly with Fe(II) ions in weakly acidic media, generating an orange–red complex (ferroin) with characteristic absorbance spectra (molar absorptivity 1.10.104 (α = 0.20) at ~max 512 nm and a molar ratio 3:1 (R: Fe(II))). The generated complex was stable, and the bound Fe(II) was resistant to oxidation. Lower absorbance of the reaction mixture indicated higher Fe^2+-chelating activity.

[7] = Superoxide radical scavenging, xanthine/xanthine oxidase/NBT system; format: biochemical
Procedure: The 1 mL cuvette for the control contained 1 mM xanthine, 20 µL xanthine oxidase (100 IU/L), and 0.04 mM NBT [43, 44]. In the sample compositions, the tested hydrazones at different concentrations were added. All measurement compositions were incubated at 37 °C, and the absorbance was determined spectrophotometrically at 560 nm via Shimadzu UV-1601 UV-vis spectrophotometer.
The potential capability of the investigated compounds to prevent the superoxide-anion radical-induced NBT reduction was investigated spectrophotometrically by xanthine-oxidase assay. The assay was carried out at the final concentration of the tested compounds, at 1, 10, 50, and 100 µM.

[8] = Stability by UV-vis measurements at different pH; format: physicochemical; conditions: 50 µM, pH 2, 4.5, 7.4 and 8.4, after 1, 2, 3 and 24 h
Procedure: The stability of the compounds was also considered a potential issue. Therefore, selected compounds (3a, 3d, 5d, and 5e at a concentration of 50 µM) were studied by UV-vis measurements under different pH conditions, including pH 2, 4.5, 7.4, and 8.4, to represent different physiological (gastric, intestinal, etc.) conditions.

red blood cells = experiment: Red blood cell hemolysis assay; format: cell-based, rat; conditions: positive control, 20% Triton X-100, 1 h, 37 °C
Procedure: The potential of the test compounds to induce hemolysis was evaluated following the protocol described by Evans et al.. The blood was collected from the heart of male Wister rats. The red blood cells were separated from the blood by repeated centrifugation in 0.9% NaCl buffer and were resuspended in phosphate-buffered saline (PBS, pH 7.4). The test compounds in concentrations 10, 100, and 200 µM, a negative control (distilled water), and a positive control (20% Triton X-100) were pipetted into 96-well plates. Then, the erythrocyte suspension in PBS was added, and the plates were incubated for 1 h at 37 °C. After centrifugation (5 min at 500× g), the supernatant was transferred to new 96-well plates in order to measure hemoglobin absorbance at 430 nm on a Synergy 2 plate-reader (BioTek Instruments, Inc., Highland Park, Winooski, VT, USA). The obtained results were presented as a percentage of hemolysis relative to the hemoglobin absorbance values in the positive controls. Hemoglobin absorbance of negative controls was accepted as zero hemolysis. […]
Hemolysis assay, using red blood cells, is an essential part of the in vitro biocompatibility testing of new drug substances; and it was used as a screening method for the evaluation of potential in vivo toxicity. The release of hemoglobin was a definite sign of the cell lysis of the erythrocytes and could be measured spectrophotometrically. […]

[9] = test system: isolated rat-brain synaptosomes; experiment: Synaptosomal viability (MTT), substances administered alone; conditions: 100 µM
Procedure: Preparation of the synaptosomes was carried out by multiple centrifugations using the Percoll gradient. Homogenization of the brains was performed in 10 volumes of cold buffer 1, which contained 5 mM HEPES and 0.32 M sucrose (pH = 7.4), followed by centrifugation at different speeds. For preparation of the gradient, the synaptosomes were isolated by Percoll reagent. Synaptosomes were resuspended and incubated in buffer 2, which contained 290 mM NaCl, 0.95 mM MgCl2x6H2O, 10 mM KCl, 2.4 mM CaCl2xH2O, 2.1 mM NaH2PO4, 44 mM HEPES, and 13 mM D-glucose. Incubations were performed in a 5% CO2 + 95% O2 atmosphere. The method of Lowry et al., using bovine serum albumin as a standard content, was applied for determination of synaptosomal protein [51].
Synaptosomal viability was monitored based on a (3-(4,5)-dimethylthiazol-2-yl)-2,5-diphenyl tetrazolium bromide) assay. After incubation with the compounds, synaptosomes were treated with 0.5 mg/mL solution of (3-(4,5)-dimethylthiazol-2-yl)-2,5-diphenyl tetrazolium bromide) for 10 min at […]. Then, the synaptosomes were centrifuged twice at 15,000× g for 1 min. The resulting formazan crystals were dissolved in DMSO (dimethyl sulfoxide), and the extinction was determined by spectrophotometric measurements at 580–660 nm. […]

[10] = test system: isolated rat-brain synaptosomes; experiment: 6-OHDA-induced neurotoxicity in isolated rat synaptosomes, GSH level; format: cell-based; conditions: 10 µM pre-incubation 30 min, then 150 µM 6-OHDA 1 h
Procedure: as §3

[11] = molecular target: T1, recombinant human MAO-B (hMAO-B) (Homo sapiens, UniProt P27338); experiment: hMAO-B enzyme activity inhibition (Amplex Red fluorimetric assay); format: biochemical; conditions: 1 µM
T1 sequence (P27338 1-520): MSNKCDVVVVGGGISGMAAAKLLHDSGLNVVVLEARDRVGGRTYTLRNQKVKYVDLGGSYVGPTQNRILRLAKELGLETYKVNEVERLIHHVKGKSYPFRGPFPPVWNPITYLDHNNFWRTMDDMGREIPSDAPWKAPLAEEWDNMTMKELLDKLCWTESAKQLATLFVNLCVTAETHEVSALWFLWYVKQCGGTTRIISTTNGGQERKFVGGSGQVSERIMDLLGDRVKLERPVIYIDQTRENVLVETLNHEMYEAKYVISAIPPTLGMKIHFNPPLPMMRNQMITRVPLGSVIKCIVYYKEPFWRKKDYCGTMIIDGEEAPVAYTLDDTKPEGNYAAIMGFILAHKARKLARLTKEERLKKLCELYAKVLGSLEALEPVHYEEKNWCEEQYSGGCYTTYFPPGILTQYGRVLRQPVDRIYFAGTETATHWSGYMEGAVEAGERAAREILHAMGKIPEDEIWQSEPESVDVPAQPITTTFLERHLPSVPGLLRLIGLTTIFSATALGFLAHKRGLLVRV
Procedure: Amplex® UltraRed reagent [48] was used for detection of the hydrogen peroxide and peroxidase activity in biological samples and enzymes. In the presence of peroxidase, a red phosphorescent oxidation product, resorufin, was produced due to the 1:1 stoichiometric reaction of Amplex® Red with hydrogen peroxide. The analysis was conducted spectrophotometrically based on the high extinction coefficient of the color product. Using this method, small amounts of hydrogen peroxide (of the order of 10 pM in a volume of 100 µL) could be detected.
The following controls were used: pure MAO-B working solution in reaction buffer, MAO-B working solution containing hydrogen peroxide, and pure reaction buffer. The final concentration of the substances was 1 µM. […] At the end of the incubation period, the reaction was started by adding a 50 µL of a mix solution containing solutions of Amplex® Red reagent, horseradish peroxidase (HRP), and tyramine as a substrate for the enzyme in a reaction buffer, to each well on the 96-well plate.

| Compound | IC50 at 24 h [1] | IC50 at 24 h [2] | viability at 10 µM [3] | absorbance ratio sample/control (lipid peroxidation) [4] | absorbance ratio, % of the controls (deoxyribose degradation) [5] | absorbance at 515 nm compared to the controls (Fe(II) chelation) [6] | decrease of NBT reduction as compared to the controls ([7]; 100 µM (highest tested concentration)) | stability (UV-vis spectra over time) [8] | melting point | hemolysis (red blood cells) | reduction of synaptosomal viability (SV) vs. non-treated synaptosomes [9] | GSH level preserved, as compared to 6-OHDA [10] | absorbance ratio (NBT reduction, % of control) ([7]; 1, 10, 50 and 100 µM) | reduction of hMAO-B enzyme activity vs. pure hMAO-B [11] |
| --- | --- | --- | --- | --- | --- | --- | --- | --- | --- | --- | --- | --- | --- | --- |
| O=C(CCc1c[nH]c2ccccc12)NN=Cc1cccc(O)c1O [Compound 3a, N′-(2,3-Dihydroxybenzylidene)-3-(1H-indol-3-yl)propanehydrazide] | 120 µM | 356 µM | 44% | around 30% | around 35% | identical absorbance values, as compared to the controls | less than 15% | stable over time | 204 to 205 °C |  |  |  |  |  |
| Triton X-100 |  |  |  |  |  |  |  |  |  | 100% |  |  |  |  |
| O=C(O)CCc1c[nH]c2ccccc12 [IPA, Indole-3-propionic acid] | > 500 µM |  | 56% | further amelioration of the antioxidant properties was not observed, as compared to melatonin |  | statistically identical absorbance values at 515 nm, as compared to the controls |  |  |  |  | 47% | 50% | did not influence the estimated absorbance ratio at any of the tested concentrations | 25% |
